Values quoted from earlier work, collected in patent US8071607B2, “Mnk1 or Mnk2 inhibitors” (Boehringer Ingelheim International GmbH, priority 2004, dated 2011).

Key:
human Mnk2 protein = human Mnk2 protein (Homo sapiens, UniProt Q9HBH9); conditions: described in WO 02/103361
Mnk1 = Mnk1 (Homo sapiens, UniProt Q9BUB5); conditions: cell culture cells transfected with Mnk1
Mnk2 (Mnk2a or Mnk2b) = conditions: cell culture cells transfected with Mnk2 (Mnk2a or Mnk2b)

human Mnk2 protein, sequence (Q9HBH9 whole entry): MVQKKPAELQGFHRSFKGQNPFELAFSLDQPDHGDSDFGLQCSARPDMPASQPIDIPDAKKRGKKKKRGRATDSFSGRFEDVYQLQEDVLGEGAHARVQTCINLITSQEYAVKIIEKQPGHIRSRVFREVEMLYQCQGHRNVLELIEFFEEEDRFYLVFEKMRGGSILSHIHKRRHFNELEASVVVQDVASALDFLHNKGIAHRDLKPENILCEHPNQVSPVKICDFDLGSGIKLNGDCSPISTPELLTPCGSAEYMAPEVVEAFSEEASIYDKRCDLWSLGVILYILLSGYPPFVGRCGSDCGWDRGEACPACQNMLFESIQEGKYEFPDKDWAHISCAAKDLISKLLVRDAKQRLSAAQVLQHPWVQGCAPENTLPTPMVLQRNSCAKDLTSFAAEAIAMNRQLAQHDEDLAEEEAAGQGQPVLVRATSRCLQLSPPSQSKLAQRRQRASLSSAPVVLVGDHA
Mnk1, sequence (Q9BUB5 whole entry): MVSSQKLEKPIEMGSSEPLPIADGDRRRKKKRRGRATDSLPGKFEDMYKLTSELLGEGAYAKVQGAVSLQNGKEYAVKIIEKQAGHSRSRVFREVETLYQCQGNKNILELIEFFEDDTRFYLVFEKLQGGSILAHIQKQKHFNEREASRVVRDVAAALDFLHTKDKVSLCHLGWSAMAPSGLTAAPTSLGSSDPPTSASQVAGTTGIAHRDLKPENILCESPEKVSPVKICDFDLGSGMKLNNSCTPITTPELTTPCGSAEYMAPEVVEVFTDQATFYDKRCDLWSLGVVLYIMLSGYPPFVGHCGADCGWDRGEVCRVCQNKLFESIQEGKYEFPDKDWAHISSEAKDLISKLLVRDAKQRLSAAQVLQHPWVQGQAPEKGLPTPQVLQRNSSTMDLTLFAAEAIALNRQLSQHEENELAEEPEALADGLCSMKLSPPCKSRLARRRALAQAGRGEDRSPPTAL

| binding to the human Mnk2 protein (human Mnk2 protein) | Structure (SMILES) | phosphorylated eIF4E (Mnk1) | phosphorylated eIF4E (Mnk2 (Mnk2a or Mnk2b)) |
| --- | --- | --- | --- |
| binds | COC(=O)c1ccc(O)cc1 [4-hydroxybenzoic acid methyl ester] | – | – |
| – | Nc1ncnc2n[nH]c(Nc3ccc(F)cc3)c12 [CGP57380] | strong reduction | strong reduction |
